Test results as given in US11498899B2, “Nitrone herbicides” (FMC Corporation, priority 2016, dated 2022).

Tests used:
[1] = system: ryegrass, Italian (Italian ryegrass, Lolium multiflorum); experiment: Test A preemergence, visual injury rating 0-100; format: in vivo
[2] = system: foxtail, giant (giant foxtail, Setaria faberii); experiment: Test A preemergence, visual injury rating 0-100; format: in vivo
[3] = system: ragweed (common ragweed, Ambrosia elatior); experiment: Test A preemergence, visual injury rating 0-100; format: in vivo
[4] = system: pigweed (Amaranthus retroflexus); experiment: Test A preemergence, visual injury rating 0-100; format: in vivo
kochia (Kochia scoparia) [5] = experiment: Test A preemergence, visual injury rating 0-100; format: in vivo
[6] = system: barnyardgrass (Echinochloa crus-galli); experiment: Test A preemergence, visual injury rating 0-100 (0 no effect, 100 complete control); format: in vivo
[7] = system: wheat (Triticum aestivum); experiment: Test A postemergence, visual injury rating 0-100; format: in vivo; conditions: 0 to 100 scale
[8] = system: barnyardgrass (Echinochloa crus-galli); experiment: Test A postemergence, visual injury rating 0-100; format: in vivo; conditions: 0 to 100 scale
[9] = system: ryegrass, Italian (Italian ryegrass, Lolium multiflorum); experiment: Test A postemergence, visual injury rating 0-100; format: in vivo; conditions: 0 to 100 scale
corn (Zea mays) = experiment: Test A postemergence, visual injury rating 0-100; format: in vivo; conditions: 0 to 100 scale
[10] = system: foxtail, giant (giant foxtail, Setaria faberii); experiment: Test A postemergence, visual injury rating 0-100; format: in vivo; conditions: 0 to 100 scale
[11] = system: galium (catchweed bedstraw, Galium aparine); experiment: Test A postemergence, visual injury rating 0-100; format: in vivo; conditions: 0 to 100 scale
[12] = system: ragweed (common ragweed, Ambrosia elatior); experiment: Test A postemergence, visual injury rating 0-100; format: in vivo; conditions: 0 to 100 scale
[13] = system: blackgrass (Alopecurus myosuroides); experiment: Test A postemergence, visual injury rating 0-100; format: in vivo; conditions: 0 to 100 scale
[14] = system: pigweed (Amaranthus retroflexus); experiment: Test A postemergence, visual injury rating 0-100; format: in vivo; conditions: 0 to 100 scale
kochia (Kochia scoparia) [15] = experiment: Test A postemergence, visual injury rating 0-100; format: in vivo; conditions: 0 to 100 scale
[16] = system: ducksalad (Heteranthera limosa); experiment: Test B flooded paddy test, visual rating 0-100; conditions: Flood, 250 g ai/ha, applied to paddy water, rated after 13 to 15 days
[17] = system: barnyardgrass (Echinochloa crus-galli); experiment: Test B flooded paddy test, visual rating 0-100; conditions: Flood, 250 g ai/ha, applied to paddy water, rated after 13 to 15 days
rice (Oryza sativa) = experiment: Test B flooded paddy test, visual rating 0-100 (0 no effect, 100 complete control); conditions: Flood, 250 g ai/ha, applied to paddy water, rated after 13 to 15 days
[18] = 125 g ai/ha, 0 to 100 scale (0 no effect, 100 complete control), approx. 10 days

SMILES | Wheat plant response rating ([7]; 125 g ai/ha) | Wheat plant response rating ([7]; 500 g ai/ha) | Barnyardgrass plant response rating ([8]; 125 g ai/ha) | Barnyardgrass plant response rating ([8]; 500 g ai/ha) | Ryegrass, Italian plant response rating ([9]; 125 g ai/ha) | Ryegrass, Italian plant response rating ([9]; 500 g ai/ha) | Corn plant response rating (corn (Zea mays); 125 g ai/ha) | Corn plant response rating (corn (Zea mays); 500 g ai/ha) | Foxtail, Giant plant response rating ([10]; 125 g ai/ha) | Foxtail, Giant plant response rating ([10]; 500 g ai/ha) | Galium plant response rating ([11]; 125 g ai/ha) | Galium plant response rating ([11]; 500 g ai/ha) | Ragweed plant response rating ([12]; 125 g ai/ha) | Ragweed plant response rating ([12]; 500 g ai/ha) | Blackgrass plant response rating ([13]; 125 g ai/ha) | Blackgrass plant response rating ([13]; 500 g ai/ha) | Pigweed plant response rating ([14]; 125 g ai/ha) | Pigweed plant response rating ([14]; 500 g ai/ha) | Kochia plant response rating (kochia (Kochia scoparia) [15]; 125 g ai/ha) | Kochia plant response rating (kochia (Kochia scoparia) [15]; 500 g ai/ha) | further results
CC(C)C1=[N+]([O-])C(C(=O)Nc2cccc(F)c2F)C(c2ccc(C(F)(F)F)cc2)C1 (racemic) [Compound 122] | 0 | 0 | 0 | 0 | 0 | 0 | 0 | 0 | 0 | 0 | 0 | 0 | 0 | 0 | 0 | 0 | 0 | 0 | 0 | 0 | Ryegrass, Italian plant response rating [1, 18]: 0; Ryegrass, Italian plant response rating (0 to 100 scale) ([1]; 500 g ai/ha): 0; Foxtail, Giant plant response rating [2, 18]: 0; Foxtail, Giant plant response rating (0 to 100 scale) ([2]; 500 g ai/ha): 0; Ragweed plant response rating [3, 18]: 0; Ragweed plant response rating (0 to 100 scale) ([3]; 500 g ai/ha): 0; Pigweed plant response rating [4, 18]: 0; Pigweed plant response rating (0 to 100 scale) ([4]; 500 g ai/ha): 0; Kochia plant response rating (kochia (Kochia scoparia) [5]; [18]): 0; Kochia plant response rating (0 to 100 scale) (kochia (Kochia scoparia) [5]; 500 g ai/ha): 0; Barnyardgrass plant response rating [6, 18]: 0; Barnyardgrass plant response rating (0 to 100 scale) ([6]; 500 g ai/ha): 0; Ducksalad plant response rating (0 to 100 scale) [16]: 0; Barnyardgrass plant response rating (0 to 100 scale) [17]: 0; Rice plant response rating (0 to 100 scale) (rice (Oryza sativa)): 0
CC1=[N+]([O-])[C@@H](C(=O)Nc2cccc(F)c2F)[C@H](c2ccc(C(F)(F)F)cc2)C1 (relative stereo) [Compound 2, trans-N-(2,3-difluorophenyl)-3,4-dihydro-5-methyl-3-[4-(trifluoromethyl)phenyl]-2H-pyrrole-2-carboxamide 1-oxide] | 40 | 70 | 70 | 90 | 60 | 70 | 40 | 80 | 90 | 90 | 70 | 70 | 30 | 60 | 20 | 90 | 40 | 80 | 40 | 80 | Ryegrass, Italian plant response rating (0 to 100 scale) ([1]; 125 g ai/ha): 30; Ryegrass, Italian plant response rating ([1]; 500 g ai/ha, 0 to 100 scale): 50; Foxtail, Giant plant response rating (0 to 100 scale) ([2]; 125 g ai/ha): 100; Foxtail, Giant plant response rating ([2]; 500 g ai/ha, 0 to 100 scale): 100; Ragweed plant response rating (0 to 100 scale) ([3]; 125 g ai/ha): 40; Ragweed plant response rating ([3]; 500 g ai/ha, 0 to 100 scale): 90; Pigweed plant response rating (0 to 100 scale) ([4]; 125 g ai/ha): 90; Pigweed plant response rating ([4]; 500 g ai/ha, 0 to 100 scale): 90; Kochia plant response rating (0 to 100 scale) (kochia (Kochia scoparia) [5]; 125 g ai/ha): 90; Kochia plant response rating (kochia (Kochia scoparia) [5]; 500 g ai/ha, 0 to 100 scale): 80; Barnyardgrass plant response rating (0 to 100 scale) ([6]; 125 g ai/ha): 90; Barnyardgrass plant response rating ([6]; 500 g ai/ha, 0 to 100 scale): 100; Ducksalad plant response rating (0 to 100 scale) [16]: 90; Barnyardgrass plant response rating (0 to 100 scale) [17]: 70; Rice plant response rating (0 to 100 scale) (rice (Oryza sativa)): 0
CC1=[N+]([O-])[C@@H](C(=O)Nc2cccc(F)c2F)[C@H](c2ccc(Cl)cc2)C1 (relative stereo) [Compound 5, trans-3-(4-chlorophenyl)-N-(2,3-difluorophenyl)-3,4-dihydro-5-methyl-2H-pyrrole-2-carboxamide 1-oxide] | 20 | 80 | 90 | 90 | 0 | 30 | 0 | 50 | 60 | 70 | 50 | 80 | 30 | 70 | 20 | 50 | 40 | 70 | 60 | 70 | Ryegrass, Italian plant response rating (0 to 100 scale) ([1]; 125 g ai/ha): 10; Ryegrass, Italian plant response rating ([1]; 500 g ai/ha, 0 to 100 scale): 80; Foxtail, Giant plant response rating (0 to 100 scale) ([2]; 125 g ai/ha): 100; Foxtail, Giant plant response rating ([2]; 500 g ai/ha, 0 to 100 scale): 100; Ragweed plant response rating (0 to 100 scale) ([3]; 125 g ai/ha): 50; Ragweed plant response rating ([3]; 500 g ai/ha, 0 to 100 scale): 90; Pigweed plant response rating (0 to 100 scale) ([4]; 125 g ai/ha): 50; Pigweed plant response rating ([4]; 500 g ai/ha, 0 to 100 scale): 90; Kochia plant response rating (0 to 100 scale) (kochia (Kochia scoparia) [5]; 125 g ai/ha): 10; Kochia plant response rating (kochia (Kochia scoparia) [5]; 500 g ai/ha, 0 to 100 scale): 60; Barnyardgrass plant response rating (0 to 100 scale) ([6]; 125 g ai/ha): 100; Barnyardgrass plant response rating ([6]; 500 g ai/ha, 0 to 100 scale): 100; Ducksalad plant response rating (0 to 100 scale) [16]: 100; Barnyardgrass plant response rating (0 to 100 scale) [17]: 65; Rice plant response rating (0 to 100 scale) (rice (Oryza sativa)): 0
CC1=[N+]([O-])[C@H](C(=O)Nc2cccc(F)c2F)[C@@H](c2ccc(C)cc2)C1 (relative stereo) [Compound 6, rel-(2S,3R)—N-(2,3-Difluorophenyl)-3,4-dihydro-5-methyl-3-(4-methylphenyl)-2H-pyrrole-2-carboxamide 1-oxide] | 60 | 80 | 90 | 90 | 50 | 60 | 30 | 80 | 90 | 90 | 50 | 70 | 0 | 60 | 50 | 80 | 40 | 50 | 30 | 70 | Ryegrass, Italian plant response rating (0 to 100 scale) ([1]; 125 g ai/ha): 80; Ryegrass, Italian plant response rating ([1]; 500 g ai/ha, 0 to 100 scale): 90; Foxtail, Giant plant response rating (0 to 100 scale) ([2]; 125 g ai/ha): 100; Foxtail, Giant plant response rating ([2]; 500 g ai/ha, 0 to 100 scale): 100; Ragweed plant response rating (0 to 100 scale) ([3]; 125 g ai/ha): 40; Ragweed plant response rating ([3]; 500 g ai/ha, 0 to 100 scale): 100; Pigweed plant response rating (0 to 100 scale) ([4]; 125 g ai/ha): 80; Pigweed plant response rating ([4]; 500 g ai/ha, 0 to 100 scale): 90; Kochia plant response rating (0 to 100 scale) (kochia (Kochia scoparia) [5]; 125 g ai/ha): 70; Kochia plant response rating (kochia (Kochia scoparia) [5]; 500 g ai/ha, 0 to 100 scale): 70; Barnyardgrass plant response rating (0 to 100 scale) ([6]; 125 g ai/ha): 100; Barnyardgrass plant response rating ([6]; 500 g ai/ha, 0 to 100 scale): 100; Ducksalad plant response rating (0 to 100 scale) [16]: 100; Barnyardgrass plant response rating (0 to 100 scale) [17]: 85; Rice plant response rating (0 to 100 scale) (rice (Oryza sativa)): 0
